Experimental data taken from patent US12258328B2, “6-membered heteroaryl-containing aminopyridine compounds as EGFR inhibitors” (YUHAN CORPORATION, priority 2021, dated 2025).
Like-named read-outs stand apart in the source and are kept apart here.

Legend:
[1] = target: EGFR L858R/C797S (Homo sapiens, UniProt P00533, C797S/L858R); experiment: Biochemical EGFR kinase assay (Lance Ultra TR-FRET), double mutant L858R/C797S
Summary of the method: (§1)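 Enzyme reactions lasted 1 hour at room temperature with test compounds between 0.003 and 10 μM, followed by 10 mM EDTA quench.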

[2] = target: EGFR del19/T790M/C797S (Homo sapiens, UniProt P00533, C797S/DEL746-750/T790M); experiment: Biochemical EGFR kinase assay (Lance Ultra TR-FRET), triple mutant del19/T790M/C797S
Summary of the method: as §1

[3] = target: EGFR del19/C797S (Homo sapiens, UniProt P00533, C797S/DEL746-750); experiment: Biochemical EGFR kinase assay (Lance Ultra TR-FRET), double mutant del19/C797S
Summary of the method: as §1

[4] = target: EGFR L858R/T790M/C797S (Homo sapiens, UniProt P00533, C797S/L858R/T790M); experiment: Biochemical EGFR kinase assay (Lance Ultra TR-FRET), triple mutant L858R/T790M/C797S
Summary of the method: as §1

[5] = target: EGFR wildtype (Homo sapiens, UniProt P00533); experiment: Biochemical EGFR kinase assay (Lance Ultra TR-FRET), wildtype
Summary of the method: as §1

[6] = IC50 L858R/C797S (nM) 100 μM ATP, 100 μM ATP
[7] = Km ATP, read-out: IC50 L858R/C797S (nM) Km ATP
[8] = IC50 del19/T790M/C797S (nM) 100 μM ATP, 100 μM ATP
[9] = Km ATP, read-out: IC50 del19/T790M/C797S (nM) Km ATP
[10] = IC50 del19/C797S (nM) 100 μM ATP, 100 μM ATP
[11] = Km ATP, read-out: IC50 del19/C797S (nM) Km ATP
[12] = IC50 L858R/T790M/C797S (nM) 100 μM ATP, 100 μM ATP
[13] = IC50 WT (nM) 100 μM ATP, 100 μM ATP
[14] = Km ATP, read-out: IC50 WT (nM) Km ATP
[15] = Km ATP, read-out: IC50 L858R/T790M/C797S (nM) Km ATP
[16] = ATP at Km, read-out: IC50 L858R/C797S, Km ATP
[17] = ATP at Km, read-out: IC50 del19/T790M/C797S, Km ATP
[18] = ATP at Km, read-out: IC50 del19/C797S, Km ATP
[19] = ATP at Km, read-out: IC50 L858R/T790M/C797S, Km ATP
[20] = ATP at Km, read-out: IC50 WT, Km ATP
[21] = IC50 del19/T790M/C797S, 100 μM ATP
[22] = IC50 L858R/T790M/C797S, 100 μM ATP

EGFR del19/T790M/C797S, sequence (P00533 with tags, fused parts or gaps DEL746-750/T790M/C797S): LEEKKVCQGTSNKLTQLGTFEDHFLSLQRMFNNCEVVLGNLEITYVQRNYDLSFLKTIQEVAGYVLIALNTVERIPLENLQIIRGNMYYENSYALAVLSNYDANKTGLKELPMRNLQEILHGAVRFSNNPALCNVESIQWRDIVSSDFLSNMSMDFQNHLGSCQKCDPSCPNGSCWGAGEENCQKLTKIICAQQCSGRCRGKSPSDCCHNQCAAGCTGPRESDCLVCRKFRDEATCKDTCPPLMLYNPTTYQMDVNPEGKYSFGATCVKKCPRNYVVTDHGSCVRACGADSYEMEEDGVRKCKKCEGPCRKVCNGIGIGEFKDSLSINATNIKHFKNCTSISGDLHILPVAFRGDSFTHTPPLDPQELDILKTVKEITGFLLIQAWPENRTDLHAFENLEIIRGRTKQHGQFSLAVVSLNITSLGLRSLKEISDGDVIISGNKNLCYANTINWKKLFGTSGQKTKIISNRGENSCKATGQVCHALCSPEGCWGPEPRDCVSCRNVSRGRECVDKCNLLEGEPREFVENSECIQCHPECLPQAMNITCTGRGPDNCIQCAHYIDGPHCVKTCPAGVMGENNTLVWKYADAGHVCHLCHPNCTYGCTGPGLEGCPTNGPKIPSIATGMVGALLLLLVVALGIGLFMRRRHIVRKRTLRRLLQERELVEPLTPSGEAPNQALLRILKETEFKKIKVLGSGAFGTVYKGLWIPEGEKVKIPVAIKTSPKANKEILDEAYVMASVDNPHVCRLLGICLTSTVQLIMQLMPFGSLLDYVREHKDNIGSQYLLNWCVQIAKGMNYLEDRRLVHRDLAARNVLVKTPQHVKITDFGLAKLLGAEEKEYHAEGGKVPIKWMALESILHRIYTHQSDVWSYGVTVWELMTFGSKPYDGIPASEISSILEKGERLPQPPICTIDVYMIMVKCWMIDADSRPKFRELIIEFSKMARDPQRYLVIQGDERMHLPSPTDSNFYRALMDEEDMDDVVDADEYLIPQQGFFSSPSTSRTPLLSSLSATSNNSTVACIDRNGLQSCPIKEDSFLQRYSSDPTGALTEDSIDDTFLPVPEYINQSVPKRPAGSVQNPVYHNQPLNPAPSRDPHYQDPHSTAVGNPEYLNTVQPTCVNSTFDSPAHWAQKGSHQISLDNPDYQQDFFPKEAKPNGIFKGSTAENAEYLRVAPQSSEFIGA
EGFR L858R/C797S, sequence (P00533 25-1210 C797S/L858R): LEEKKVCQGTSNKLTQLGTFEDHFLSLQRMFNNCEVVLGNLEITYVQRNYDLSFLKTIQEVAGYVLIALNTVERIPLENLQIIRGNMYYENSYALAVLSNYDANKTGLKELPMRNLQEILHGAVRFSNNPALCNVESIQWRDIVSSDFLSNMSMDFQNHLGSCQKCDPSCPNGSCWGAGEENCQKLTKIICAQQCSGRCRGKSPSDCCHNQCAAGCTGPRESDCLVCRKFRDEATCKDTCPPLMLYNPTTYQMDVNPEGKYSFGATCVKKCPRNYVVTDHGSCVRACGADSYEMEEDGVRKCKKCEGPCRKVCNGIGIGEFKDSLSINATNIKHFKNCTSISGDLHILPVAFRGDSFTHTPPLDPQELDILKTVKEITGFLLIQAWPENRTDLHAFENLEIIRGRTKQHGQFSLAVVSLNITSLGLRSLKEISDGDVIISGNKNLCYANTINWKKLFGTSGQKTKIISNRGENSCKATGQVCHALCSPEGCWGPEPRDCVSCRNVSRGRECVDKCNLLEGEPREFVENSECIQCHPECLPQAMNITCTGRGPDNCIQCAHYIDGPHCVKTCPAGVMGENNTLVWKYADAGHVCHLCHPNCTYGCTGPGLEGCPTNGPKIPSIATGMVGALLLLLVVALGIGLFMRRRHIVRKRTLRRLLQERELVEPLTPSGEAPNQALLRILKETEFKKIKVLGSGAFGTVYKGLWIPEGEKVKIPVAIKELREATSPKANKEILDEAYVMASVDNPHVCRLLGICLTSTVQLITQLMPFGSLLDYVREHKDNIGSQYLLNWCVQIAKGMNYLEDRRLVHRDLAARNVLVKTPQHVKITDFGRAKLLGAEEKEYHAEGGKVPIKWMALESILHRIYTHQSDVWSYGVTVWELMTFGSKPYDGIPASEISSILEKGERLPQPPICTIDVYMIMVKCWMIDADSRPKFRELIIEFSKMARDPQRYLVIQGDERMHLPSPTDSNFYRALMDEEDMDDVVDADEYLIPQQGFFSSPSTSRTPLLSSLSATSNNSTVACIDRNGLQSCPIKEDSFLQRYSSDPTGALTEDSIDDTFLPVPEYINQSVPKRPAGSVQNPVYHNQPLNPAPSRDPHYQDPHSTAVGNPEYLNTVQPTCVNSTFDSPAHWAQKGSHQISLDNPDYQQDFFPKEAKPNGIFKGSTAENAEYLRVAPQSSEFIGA
EGFR L858R/T790M/C797S, sequence (P00533 25-1210 T790M/C797S/L858R): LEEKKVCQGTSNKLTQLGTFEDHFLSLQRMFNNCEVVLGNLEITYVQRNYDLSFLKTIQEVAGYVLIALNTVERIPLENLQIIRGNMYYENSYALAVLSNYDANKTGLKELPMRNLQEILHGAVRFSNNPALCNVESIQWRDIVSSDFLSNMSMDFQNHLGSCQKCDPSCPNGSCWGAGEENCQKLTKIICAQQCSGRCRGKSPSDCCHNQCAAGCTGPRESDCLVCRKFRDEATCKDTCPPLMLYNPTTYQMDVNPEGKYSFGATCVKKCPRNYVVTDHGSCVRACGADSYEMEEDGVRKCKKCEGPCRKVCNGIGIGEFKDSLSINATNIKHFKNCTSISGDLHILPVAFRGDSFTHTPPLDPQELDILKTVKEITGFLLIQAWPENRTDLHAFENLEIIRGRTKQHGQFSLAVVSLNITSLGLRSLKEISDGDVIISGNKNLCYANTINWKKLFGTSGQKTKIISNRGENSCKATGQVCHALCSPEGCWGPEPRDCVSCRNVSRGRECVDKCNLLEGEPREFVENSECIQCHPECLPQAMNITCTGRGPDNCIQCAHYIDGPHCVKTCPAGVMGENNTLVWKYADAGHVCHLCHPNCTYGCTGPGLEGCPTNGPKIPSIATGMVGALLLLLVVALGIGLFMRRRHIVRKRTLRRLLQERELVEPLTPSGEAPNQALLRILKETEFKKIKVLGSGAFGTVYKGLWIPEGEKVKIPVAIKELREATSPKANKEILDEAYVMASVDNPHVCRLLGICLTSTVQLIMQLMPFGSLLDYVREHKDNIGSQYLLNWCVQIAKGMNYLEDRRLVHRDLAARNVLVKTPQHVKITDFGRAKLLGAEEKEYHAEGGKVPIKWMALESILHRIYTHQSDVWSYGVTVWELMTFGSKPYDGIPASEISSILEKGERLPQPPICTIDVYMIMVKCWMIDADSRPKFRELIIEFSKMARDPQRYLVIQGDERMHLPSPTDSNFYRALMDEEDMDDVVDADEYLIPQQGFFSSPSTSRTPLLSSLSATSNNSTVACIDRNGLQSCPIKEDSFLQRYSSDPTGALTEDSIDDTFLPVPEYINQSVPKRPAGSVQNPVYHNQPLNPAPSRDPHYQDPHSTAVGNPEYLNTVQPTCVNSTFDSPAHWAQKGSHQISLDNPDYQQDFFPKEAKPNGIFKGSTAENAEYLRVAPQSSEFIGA
EGFR wildtype, sequence (P00533 25-1210): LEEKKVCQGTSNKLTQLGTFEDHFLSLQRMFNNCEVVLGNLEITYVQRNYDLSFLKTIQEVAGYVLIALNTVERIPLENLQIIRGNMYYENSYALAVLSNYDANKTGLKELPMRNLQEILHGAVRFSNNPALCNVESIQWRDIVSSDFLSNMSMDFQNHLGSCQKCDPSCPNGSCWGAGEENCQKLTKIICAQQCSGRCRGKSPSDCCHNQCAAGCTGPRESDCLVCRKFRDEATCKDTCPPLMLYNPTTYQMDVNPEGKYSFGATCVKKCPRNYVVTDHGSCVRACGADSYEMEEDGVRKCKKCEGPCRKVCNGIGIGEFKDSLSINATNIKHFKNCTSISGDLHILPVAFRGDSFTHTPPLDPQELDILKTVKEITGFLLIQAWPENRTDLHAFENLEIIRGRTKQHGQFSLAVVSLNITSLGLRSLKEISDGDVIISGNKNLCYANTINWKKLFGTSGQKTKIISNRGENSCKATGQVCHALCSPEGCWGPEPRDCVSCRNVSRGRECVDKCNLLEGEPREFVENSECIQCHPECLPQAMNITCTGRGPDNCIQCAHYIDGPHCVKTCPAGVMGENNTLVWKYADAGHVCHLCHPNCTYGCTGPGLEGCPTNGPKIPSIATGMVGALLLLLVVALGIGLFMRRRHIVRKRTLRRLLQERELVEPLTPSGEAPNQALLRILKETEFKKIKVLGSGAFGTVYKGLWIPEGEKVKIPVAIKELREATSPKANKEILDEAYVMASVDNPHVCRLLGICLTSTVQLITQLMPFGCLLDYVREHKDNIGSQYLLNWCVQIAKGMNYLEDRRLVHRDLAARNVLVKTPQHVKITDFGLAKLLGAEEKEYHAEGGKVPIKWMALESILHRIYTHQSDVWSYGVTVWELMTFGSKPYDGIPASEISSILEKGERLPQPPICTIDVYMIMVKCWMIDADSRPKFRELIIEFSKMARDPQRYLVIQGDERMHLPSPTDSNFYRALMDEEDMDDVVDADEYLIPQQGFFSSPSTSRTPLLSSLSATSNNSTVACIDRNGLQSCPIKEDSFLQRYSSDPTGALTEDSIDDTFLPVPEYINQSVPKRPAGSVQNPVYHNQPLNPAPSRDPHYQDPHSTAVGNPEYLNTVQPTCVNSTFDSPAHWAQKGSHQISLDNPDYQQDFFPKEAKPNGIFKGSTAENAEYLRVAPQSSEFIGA

Row | Compound | IC50 [1, 6] | IC50 [1, 7] | IC50 [2, 8] | IC50 [2, 9] | IC50 [3, 10] | IC50 [3, 11] | IC50 [4, 12] | IC50 [5, 13] | IC50 [5, 14] | IC50 [4, 15] | IC50 [1, 16] | IC50 [2, 17] | IC50 [3, 18] | IC50 [4, 19] | IC50 [5, 20] | IC50 ([1]; IC50 L858R/C797S, 100 μM ATP) | IC50 [2, 21] | IC50 ([3]; IC50 del19/C797S, 100 μM ATP) | IC50 [4, 22] | IC50 ([5]; IC50 WT, 100 μM ATP)
1 | CC(C)(O)c1cc(-c2cnc(Nc3ccnc(-c4cnn(S(=O)(=O)C5CC5)c4)n3)cc2N[C@H]2CC[C@@H](CO)CC2)ncc1F [Example 105, 2-(6′-((2-(1-(Cyclopropylsulfonyl)-1H-pyrazol-4-yl)pyrimidin-4-yl)amino)-5-fluoro-4′-(((1s,4s)-4-(hydroxymethyl)cyclohexyl)amino)-[2,3′-bipyridin]-4-yl)propan-2-ol] | 5.4 nM | 0.6 nM | 3.2 nM | 2.1 nM | 3.9 nM | 3 nM | 1.2 nM | 787 nM | 5.3 nM |  |  |  |  |  |  |  |  |  |  | 
2 | O=S(=O)(C1CC1)n1cc(-c2nccc(Nc3cc(N[C@H]4CC[C@@H](F)CC4)c(-c4ccc(CN5CCOCC5)cn4)cn3)n2)cn1 [Example 126, N^6′-(2-(1-(Cyclopropylsulfonyl)-1H-pyrazol-4-yl)pyrimidin-4-yl)-N^4′-((1s,4s)-4-fluorocyclohexyl)-5-(morpholinomethyl)-[2,3′-bipyridine]-4′,6′-diamine] |  | 12.6 nM |  | 2.7 nM |  | 12.1 nM |  |  | 45.7 nM | 1.2 nM |  |  |  |  |  |  |  |  |  | 
3 | CC(C)(O)[C@H]1CC[C@@H](Nc2cc(Nc3ccnc(-c4cnn(S(=O)(=O)C5CC5)c4)n3)ncc2-c2cnc(N3CCC(F)(F)CC3)cn2)CC1 [Example 72, 2-((1s,4s)-4-((2-((2-(1-(Cyclopropylsulfonyl)-1H-pyrazol-4-yl)pyrimidin-4-yl)amino)-5-(5-(4,4-difluoropiperidin-1-yl)pyrazin-2-yl)pyridin-4-yl)amino)cyclohexyl)propan-2-ol] | 2430 nM | 61.4 nM | 12.7 nM | 10.7 nM | 21.7 nM | 22.4 nM | 12.2 nM | > 10000 nM | 84.2 nM | 1.7 nM |  |  |  |  |  |  |  |  |  | 
4 | CN(C)C[C@H]1CC[C@@H](Nc2cc(Nc3ccnc(-c4cnn(S(=O)(=O)C5CC5)c4)n3)ncc2-c2ccc(N3CCC(F)(F)CC3)nn2)CC1 [Example 73, N^2-(2-(1-(Cyclopropylsulfonyl)-1H-pyrazol-4-yl)pyrimidin-4-yl)-5-(6-(4,4-difluoropiperidin-1-yl)pyridazin-3-yl)-N^4-((1s,4s)-4-((dimethylamino)methyl)cyclohexyl)pyridine-2,4-diamine] | 16.3 nM |  | 0.7 nM | 0.4 nM | 0.5 nM | 0.4 nM | 0.5 nM | 562 nM | 2.2 nM | 0.2 nM |  |  |  |  |  |  |  |  |  | 
5 | CN(C)C[C@H]1CC[C@@H](Nc2cc(Nc3ccnc(-c4cnn(S(=O)(=O)C5CC5)c4)n3)ncc2-c2cc(N3CCC(F)(F)CC3)ccn2)CC1 [Example 101, N^6′-(2-(1-(Cyclopropylsulfonyl)-1H-pyrazol-4-yl)pyrimidin-4-yl)-4-(4,4-difluoropiperidin-1-yl)-N^4′-((1s,4s)-4-((dimethylamino)methyl)cyclohexyl)-[2,3′-bipyridine]-4′,6′-diamine] | 14.4 nM | 2.1 nM | 0.9 nM | 1.7 nM | 2.4 nM | 2.1 nM | 0.7 nM | 575 nM | 2.2 nM | 0.4 nM |  |  |  |  |  |  |  |  |  | 
6 | CN(C)c1ccc(-c2cnc(Nc3ccnc(-c4cnn(S(=O)(=O)C5CC5)c4)n3)cc2N[C@H]2CC[C@@](C)(O)CC2)nc1 [Example 40, (1s,4s)-4-((6′-((2-(1-(Cyclopropylsulfonyl)-1H-pyrazol-4-yl)pyrimidin-4-yl)amino)-5-(dimethylamino)-[2,3′-bipyridin]-4′-yl)amino)-1-methylcyclohexan-1-ol] | 7.7 nM | 1.7 nM | 2.1 nM | 0.7 nM | 3.2 nM | 2.3 nM | 1.7 nM | 1440 nM | 5 nM | 0.5 nM |  |  |  |  |  |  |  |  |  | 
7 | O=S(=O)(C1CC1)n1cc(-c2nccc(Nc3cc(N[C@H]4CC[C@@H](F)CC4)c(-c4cnc(OC5CCOCC5)cn4)cn3)n2)cn1 [Example 151, N^2-(2-(1-(Cyclopropylsulfonyl)-1H-pyrazol-4-yl)pyrimidin-4-yl)-N^4-((1s,4s)-4-fluorocyclohexyl)-5-(5-((tetrahydro-2H-pyran-4-yl)oxy)pyrazin-2-yl)pyridine-2,4-diamine] |  |  |  |  |  |  |  |  |  |  | 17.2 nM | 0.8 nM | 34 nM | 0.1 nM | 1910 nM |  |  |  |  | 
8 | O=S(=O)(C1CC1)n1cc(-c2nccc(Nc3cc(N[C@H]4CC[C@@H](CO)CC4)c(-c4ccc(OCCO)cn4)cn3)n2)cn1 [Example 206, 2-((6′-((2-(1-(Cyclopropylsulfonyl)-1H-pyrazol-4-yl)pyrimidin-4-yl)amino)-4′-(((1s,4s)-4-(hydroxymethyl)cyclohexyl)amino)-[2,3′-bipyridin]-5-yl)oxy)ethan-1-ol] |  |  |  |  |  |  |  |  |  |  | 0.4 nM | 0.6 nM | 0.7 nM | 0.3 nM | 1.2 nM | 2.4 nM | 0.9 nM | 0.6 nM | 0.4 nM | 348 nM
9 | CN(C)C[C@H]1CC[C@@H](Nc2cc(Nc3ccnc(-c4cnn(S(=O)(=O)C5CC5)c4)n3)ncc2-c2cc(NC3CC(F)(F)C3)ccn2)CC1 [Example 216, N^6′-(2-(1-(Cyclopropylsulfonyl)-1H-pyrazol-4-yl)pyrimidin-4-yl)-N^4-(3,3-difluorocyclobutyl)-N^4′-((1s,4s)-4-((dimethylamino)methyl)cyclohexyl)-[2,3′-bipyridine]-4,4′,6′-triamine] |  |  |  |  |  |  |  |  |  |  | 0.3 nM | 1.2 nM | 0.8 nM | 0.8 nM | 0.8 nM | 1.4 nM | 1.2 nM | 1.3 nM | 0.7 nM | 136 nM
10 | C[C@]1(O)CC[C@@H](Nc2cc(Nc3ccnc(-c4cnn(S(=O)(=O)C5CC5)c4)n3)ncc2-c2ccc(N3CC(F)(F)C3)nn2)CC1 [Example 66, (1s,4s)-4-((2-((2-(1-(Cyclopropylsulfonyl)-1H-pyrazol-4-yl)pyrimidin-4-yl)amino)-5-(6-(3,3-difluoroazetidin-1-yl)pyridazin-3-yl)pyridin-4-yl)amino)-1-methylcyclohexan-1-ol] | 12.2 nM | 0.5 nM | 0.5 nM | 0.3 nM | 0.9 nM | 0.4 nM | 0.5 nM | > 10000 nM | 11.5 nM | 0.1 nM |  |  |  |  |  |  |  |  |  | 
11 | C[C@]1(O)CC[C@@H](Nc2cc(Nc3ccnc(-c4cnn(S(=O)(=O)C5CC5)c4)n3)ncc2-c2ccc(F)cn2)CC1 [Example 6, (1s,4s)-4-((6′-((2-(1-(Cyclopropylsulfonyl)-1H-pyrazol-4-yl)pyrimidin-4-yl)amino)-5-fluoro-[2,3′-bipyridin]-4′-yl)amino)-1-methylcyclohexan-1-ol] | 6.5 nM | 0.3 nM | 0.1 nM | 0.2 nM | 0.4 nM | 0.2 nM | 0.1 nM | > 10000 nM |  |  |  |  |  |  |  |  |  |  |  | 
